# Results as given in US9701556B1, “Compositions, methods, and systems for reducing contamination” (priority 2004, dated 2017).
# Where “and” joins values, the source holds several entries; their conditions need not be identical. Equal values may be shown once.
# Key:
# [1] = Comparative treatment of 2,4-D in water, GC analysis; conditions: after four hours
# Procedure: A solution containing 1.5 L of distilled water, approximately 0.2 g of sodium bicarbonate, and a small amount of sodium salt of 2,4-D were prepared with magnetic stirring at room temperature in a 2.5 L flask. The dissolved sodium bicarbonate increased the alkalinity of the water somewhat, causing the water to mimic a natural water source. Two hundred fifty milliliters of this solution was distributed into three 500 mL Erlenmeyer flasks.
# The flasks were then covered with parafilm and swirled to facilitate mixing of the solution.
# [2] = Treatment of contaminated groundwater, BTEX SW 846 8260; conditions: 250 ml groundwater, 1 ml 35% hydrogen peroxide (with or without 1 ml Fe-GLC); untreated 56 ppb; ND = non detectible
# [3] = as above; conditions: 250 ml groundwater, 1 ml 35% hydrogen peroxide (with or without 1 ml Fe-GLC); untreated 34 ppb; ND = non detectible
# [4] = as above; conditions: 250 ml groundwater, 1 ml 35% hydrogen peroxide (with or without 1 ml Fe-GLC); untreated 171 ppb; ND = non detectible
# [5] = as above; conditions: 250 ml groundwater, 1 ml 35% hydrogen peroxide (with or without 1 ml Fe-GLC); untreated 159 ppb; ND = non detectible
# [6] = as above; conditions: 250 ml groundwater, 1 ml 35% hydrogen peroxide (with or without 1 ml Fe-GLC); untreated 27 ppb
# [7] = system: Fecal Coliform; assay: Disinfection of wastewater, fecal coliform count; type: cell-based; conditions: 50 microliters 35% H2O2 (with or without 50 microliters Fe-GLC), after twenty minutes, control 2200
# Excerpt: The samples were divided equally into three clean 500 milliliter sample containers from the single sample taken. The first sample served as a control and was set aside. […] Each sample was capped and shaken briefly to mix the contents. After twenty minutes, sub-samples were taken from each vessel and pored into fecal coliform sample containers for analysis at the Hampton Roads Sanitary District lab.
# [8] = system: heterotrophic bacteria; assay: Disinfection of wastewater with chelated iron compounds, total heterotrophic bacteria counts; type: cell-based; conditions: compared with hydrogen peroxide alone
# Procedure: A 10 gallon sample of wastewater from the Massaponax Wastewater Plant was collected and allowed to sit undisturbed for thirty minutes. The clarified supernatant was then pored off of the top of the settled solids within the sample. The supernatant was then mixed and four samples were collected to determine untreated heterotrophic bacteria counts. […] were dissolved in distilled water at 0.4334M. Ferric chloride was added in amounts to achieve saturation of chelant sites on the respective chelants. […] Twenty individual liter samples of supernatant were then decanted from the well-mixed wastewater sample for testing. Four chelated iron products with peroxide were tested at two test concentrations and compared to samples receiving peroxide only and iron chelate only. […] Individual samples were dosed with the respective additives, mixed with a magnetic stir bar and allowed to react for 30 minutes. Samples were then decanted to sterile sample containers containing sodium thiosulfate to stop the oxidation process and preserve the sample. Samples were then placed in a refrigerator until all samples were finished. Samples were packaged in a standard cooler with ice packs and sent via overnite delivery to ProChem Labs in Lynchburg, Va. for analysis for total heterotrophic bacteria counts.
# [9] = Treatment of sulfides in municipal wastewater with ferric chelants and hydrogen peroxide
# Procedure: The pH was then raised to 7 using sodium hydroxide. Precipitation of iron oxides and/or hydroxides at this pH offered assurance of complete chelation of still soluble iron after 24 hours.
# Total sulfides were tested for using Standard Methods 4500-S^2− D with a Hach Chemical Company (of Loveland, Colo.) DR 2000 Spectrophotometer and reagents from Hach specific for this particular test. To keep total sulfides within the range of the test, samples were diluted with distilled water prior to conducting the test as per Hach instructions.
# Tests for total sulfide were conducted after 5, 15, and 30 minutes of contact time on each of the seven liter test jars.
compound,measurement,setting,value
"OO [H2O2 Only, hydrogen peroxide]","2,4-D concentration","[1]; 250 mL, 200 microliters 50% hydrogen peroxide (with or without 200 microliters Fe-GLC), untreated 130 ppb",230 ppb
same,"effect on 2,4-D, in words",[1],had no affect
same,Benzene,[2],15.1 ppb
same,Ethylbenzene,[3],13.0 ppb
same,Toluene,[4],55.7 ppb
same,Xylenes,[5],67.0 ppb
same,MtBE,[6],15.7 ppb
same,Fecal Coliform,[7],53 cfu/100 mL
same,Fecal Coliform,[7]; listed as hydrogen peroxide,Fifty three
same,"disinfection effect, in words",[8],good disinfectant
same,sulfide reduction after 15 minutes,"[9]; 2.5:1.0 peroxide to sulfide, 105.8 ppm hydrogen peroxide, 20 ppm chelant where added, peroxide alone averaged",52%
same,sulfide treatment after 15 minutes,"[9]; 37.8 ppm hydrogen peroxide, 12 ppm chelant where added",42.9%
same,"Percentage of Sulfide Treated, Dose 3 38.7 ppm H2O2 Only","[9]; after 30 minutes, 1.5:1.0 ratio of peroxide to sulfide",55.5 and 59.0 and 46.5 and 56.3 and 57.0 and 54.7
same,"Percentage of Sulfide Treated, Dose 3 105.8 ppm H2O2 Only","[9]; after 30 minutes, 2.5:1.0 ratio of peroxide to sulfide",69.0 and 69.5 and 67.8 and 66.4 and 44.4 and 69.3 and 70.2
